Laboratory results as given in patent US20210017231A1, “ATP1A1-TARGETING POLYPEPTIDE AND USE THEREOF” (SUN YAT-SEN UNVIERSITY CANCER CENTER (SYSUCC), priority 2017, published 2021).
Bridge positions count the residues as written; N and C are the ends. Primed or numbered codes have the meaning given here. Ends that are not written are not given here. FITC′ = fluorescein isothiocyanate label; Cy5 = Cy5 dye label

Experiments:
[1] = system: breast cancer MDA-MB-231 cells; experiment: Polypeptide blocking experiment (ELISA on cells); format: cell-based, human; settings: 5, 10, 20 μg/μl S3 polypeptide
Description: An enzyme-linked immunosorbent assay was used to detect the binding of S3 phage to breast cancer MDA-MB-231 cells, and then to detect whether […] could block the binding of […] to breast cancer MDA-MB-231 cells. The specific procedure was as follows:
2) digesting cells with trypsin, counting, and uniformly plating the cells in a 96-well plate, 1×10^4/well;
3) in the blocking experiment, adding 5, 10, 20 μg/μl S3 polypeptide and incubating at 37° C. for 1 h;
4) in the targeting experiment, adding phages in a concentration gradient of 1.0×10^9, 2.0×10^9, 4.0×10^9, 8.0×10^9, […] pfu/well, incubating at 37° C. for 2 h for binding; in the blocking experiment, adding 20 μg/μl of Biotin-S3 polypeptide;
5) discarding the cell incubation solution;
6) fixing the cells with 4% paraformaldehyde for 10 min;
7) washing five times with 0.1% PBST, 270 μl/well;
8) destroying the membranes with 0.1% Triton, and washing once with PBST, 270 μl/well;
9) blocking with 5% BSA for 30 min;
10) adding 1:1000 diluted anti-M13 conjucted HRP by 50 μl/well, and incubating at room temperature for 1 h;
11) washing five times with 0.1% PBST;
12) developing color with a TMB kit; and 13) reading at OD 450 nm by a microplate reader.

[2] = system: human breast cancer MDA-MB-231 cells; experiment: Confocal laser scanning microscopy (immunofluorescence) of biotin peptide binding to cells; format: cell-based; settings: MDA-MB-231 versus human normal breast MCF-10A cells
From the text: The binding of Biotin-C (Biotin-SEQ ID NO:2) and Biotin-S3 (Biotin-SEQ ID NO:1) polypeptide to human breast cancer MDA-MB-231 cells was detected by confocal laser scanning microscopy. Meanwhile, the inventors compared it with the binding of the above polypeptides to human normal breast MCF-10A cells. The particular experimental procedure was as follows:
1) digesting cells with trypsin and plating the cells in a 24-well plate provided with a slide, 1×10^5/well;
2) adding Biotin-C (Biotin-SEQ ID NO:2), Biotin-S3 (Biotin-SEQ ID NO:1) polypeptide to the cells, 200 μg/well, and incubating at 37° C. for 2 h;
3) discarding the cell incubation solution;
4) fixing the cells with 4% paraformaldehyde for 10 min;
5) washing five times with 0.1% PBST, 500 μl/well, and washing off unbound polypeptides;
6) destroying the membranes with 0.1% Triton, and washing once with PBST, 500 μl/well;
7) blocking with 5% BSA, 30 min;
8) adding anti-Biotin Streptavidin (1:1000) into the wells, and incubating at 4° C. for 12 h;
9) washing three times with 0.1% PBST, 5 min/time;
10) adding anti-Streptavidin conjugated FITC (1:1000) into the wells, and incubating at room temperature for 45 min;
11) washing three times with 0.1% PBST, 5 min/time;
12) staining cell membranes with WGA (1:1000), and incubating at room temperature for 10 min;
13) washing three times with 0.1% PBST, 5 min/time; […]

[3] = system: breast cancer MDA-MB-231 cells; experiment: Flow cytometry binding of fluorescent peptide to cells; format: cell-based, human; settings: 10 μM, on ice 20 min, FIG. 1C
Description: The binding of FITC-S3 (SEQ ID NO:3) fluorescent peptide to breast cancer MDA-MB-231 cells was detected by flow cytometry. The inventors first synthesized a fluorescent peptide in which the […] and Con peptide were conjugated to a fluorescent dye FITC, and then incubated FITC-S3 (SEQ ID NO:3) fluorescent peptide with the cells, and finally detected the binding thereof by flow cytometry. The particular experimental procedure was as follows:
1) digesting cells with trypsin, counting, and adjusting the concentration thereof to be 1.0×10^6 cells/tube, resuspending the cells with 100 μl serum-free 1640 medium;
2) adding FITC-C or […] in PBS (10 μM), and incubating the cells on ice for binding for 20 min;
3) washing three times with 0.1% PBST, 1 ml/time, and centrifuging at 400 g for 5 min;
4) resuspending the cells with 500 μl PBS; and
5) detecting by flow cytometry.

[4] = system: breast cancer MDA-MB-231 tumors; experiment: Infrared fluorescent molecular imaging of breast cancer tumor-bearing mice; format: in vivo
From the text: Tumor-bearing mice were used for the infrared fluorescence molecular imaging experiment to detect the distribution of Cy5-S3 (Cy5-SEQ ID NO:1) fluorescent peptide in various organs and tumors of the tumor-bearing mice. The experimental procedure of the imaging experiment of small living animals was as follows: 1) taking out nine male NOD SCID mice of 4-week old; 2) digesting breast cancer MDA-MB-231 cells with trypsin, counting, and adjusting the concentration to be 5.0×10^7 cells/ml, resuspending the cells with 20% Matrigel DMEM, and injecting with 200 μl/mouse; 3) observing tumor formation for 1-2 weeks, measuring the sizes of the tumors, and randomizing the mice into three groups according to the sizes of the tumors, i.e. […] 4) dissolving 300 μg fluorescent peptides in 200 μl PBS, injecting the fluorescent peptides into the tail veins of the mice, and dynamically detecting the distribution of the fluorescent peptides in various organs and tumors of the nude mice by using a small living animal imaging instrument. 5) taking out every organ and tumor, homogenizing, measuring the fluorescence intensity of each organ and tumor, and making statistical analysis.

[5] = system: esophageal cancer KYSE30 tumor; experiment: Infrared fluorescent molecular imaging of esophageal cancer tumor-bearing mice; format: in vivo; settings: 48 hours after tail vein injection, FIGS. 2D, 2E
From the text: (§1) According to the above procedure, the Cy5-S3 (Cy5-SEQ ID NO:1) fluorescent peptides were applied in esophageal cancer KYSE30 tumor-bearing and nasopharyngeal carcinoma CNE2 mouse models, in order to detect whether Cy5-S3 (Cy5-SEQ ID NO:1) fluorescent peptide can be imaged with infrared fluorescent molecular imaging in other tumors.

[6] = system: nasopharyngeal carcinoma CNE2 tumor; experiment: Infrared fluorescent molecular imaging of nasopharyngeal carcinoma mouse model; format: in vivo, mice; settings: 48 hours after tail vein injection, FIG. 2F
From the text: as §1

## CSISSLTHC [Peptide S3, ATP1A1-targeting polypeptide, SISSLTH motif with Cys at both terminals]
[1]; 20 μg/μl Biotin-S3, FIG. 1B
  blocking of the binding of Biotin-S3 polypeptide to breast cancer cells: can block the binding
[1]; FIG. 1B
  concentration dependence of the blocking effect: concentration-dependent
[2]
  targeting of breast cancer cells compared to normal breast MCF-10A cells: obvious property of targeting breast cancer cells

## CSISSLTHC-GGGS-FITC (CSISSLTHCGGGS-{FITC′}; disulfide 1-9 (inferred)) [FITC-S3, S3 peptide conjugated to fluorescent dye FITC]
[3]
  binding ability to breast cancer MDA-MB-231 cells versus FITC-control fluorescent peptide: stronger than that of FITC-control fluorescent peptide

## Cy5-CSISSLTHC (disulfide 1-9 (inferred)) [Cy5-S3, Cy5 fluorescent S3 peptide]
[4]; 48 hours after tail vein injection, FIG. 2C
  content of fluorescent peptide in unit weight of the tumor versus other organs: significantly higher than that in other organs
[4]; mouse, in vivo
  enrichment in tumor by tissue analysis of dissected mice: significantly enriched in the tumor
  enrichment in tumors by infrared imaging of the living mice: obviously enriched in the tumors
[5]
  infrared fluorescent molecular imaging of esophageal cancer: can also be used for the infrared fluorescent molecular imaging
[6]
  infrared fluorescent molecular imaging of nasopharyngeal carcinoma: can also be used for the infrared fluorescent molecular imaging
